Measurements from US20250213532A1, “5-METHOXY-N,N-[…][…] THE TREATMENT OF BIPOLAR DISORDER” (GH RESEARCH IRELAND LIMITED, priority 2022, published 2025).

How the values were obtained:
[1] = tested on: Escherichia coli WP2 uvrA pKM101; experiment: Bacterial mutation test, Escherichia coli; assay type: cell-based; conditions: up to 5000 pg/plate; absence and presence of rat liver S-9
From the text: These conditions included treatments at concentrations up to […] (the maximum recommended concentration according to current regulatory guidelines), in the absence and in the presence of a rat liver metabolic activation system (S-9).

[2] = tested on: patients with treatment-resistant major depressive disorder (TRD); experiment: Phase 1/2 clinical trial of inhaled 5-MeO-DMT in TRD: BPRS; assay type: in vivo, human; conditions: for BPRS Emotional Withdrawal percentage improvement / BPRS Emotional Withdrawal score (sum): baseline 13
From the text: The Brief Psychiatric Rating Scale (BPRS) is intended to screen for psychiatric symptoms in a structured fashion. The scale is one of the most widely used scales to measure psychotic symptoms and was first published in 1962. The design has later been updated.
The 18 items (somatic concern, anxiety, emotional withdrawal, conceptual disorganization, guilt feelings, tension, mannerisms and posturing, grandiosity, depressive mood, hostility, suspiciousness, hallucinatory behaviour, motor retardation, uncooperativeness, unusual thought content, blunted affect, excitement and disorientation) are scored and each item is rated on a scale of 1-7.
Based on the answers and the behaviours observed, a physician or psychologist will complete the BPRS form by ranking the severity of each area using a scale of one to seven: a score of one means an absence of signs or symptoms up to a score of seven that means it is present and at a severe level. If it is not possible to rate the specific signs or symptoms, a score of 0 or “Not assessed” is recorded.
Patients were assigned to different groups.
This trial was designed in two parts.

[3] = 12 mg n=4, 3 hours, baseline 11
[4] = 12 mg n=4, 3 hours, baseline 14
[5] = 12 mg n=4, 3 hours, baseline 18
[6] = 12 mg n=4, 3 hours, baseline 25

COc1ccc2[nH]cc(CCN(C)C)c2c1 [5-MeO-DMT]
Induction of mutation [1]: did not induce mutation
BPRS Blunted Affect percentage improvement [2, 3]: 27%
BPRS Blunted Affect score (sum) [2, 3]: 8
BPRS Emotional Withdrawal percentage improvement ([2]; 12 mg n=4, 3 hours): 15%
BPRS Emotional Withdrawal score (sum) ([2]; 12 mg n=4, 3 hours): 11
BPRS Tension percentage improvement [2, 4]: 36%
BPRS Tension score (sum) [2, 4]: 9
BPRS Guilt Feelings percentage improvement [2, 5]: 50%
BPRS Guilt Feelings score (sum) [2, 5]: 9
BPRS Anxiety percentage improvement [2, 6]: 56%
BPRS Anxiety score (sum) [2, 6]: 11
BPRS Blunted Affect score (sum) ([2]; 12 mg n=4, Day 1, baseline 11): 6
BPRS Emotional Withdrawal score (sum) ([2]; 12 mg n=4, Day 1): 8
BPRS Tension percentage improvement ([2]; 12 mg n=4, Day 1, baseline 14): 57%
BPRS Tension score (sum) ([2]; 12 mg n=4, Day 1, baseline 14): 6
BPRS Guilt Feelings percentage improvement ([2]; 12 mg n=4, Day 1, baseline 18): 72%
BPRS Guilt Feelings score (sum) ([2]; 12 mg n=4, Day 1, baseline 18): 5
BPRS Anxiety percentage improvement ([2]; 12 mg n=4, Day 1, baseline 25): 76%
BPRS Anxiety score (sum) ([2]; 12 mg n=4, Day 1, baseline 25): 6
BPRS Blunted Affect score (sum) ([2]; 12 mg n=4, Day 7, baseline 11): 5
BPRS Emotional Withdrawal score (sum) ([2]; 12 mg n=4, Day 7): 6
BPRS Tension percentage improvement ([2]; 12 mg n=4, Day 7, baseline 14): 57%
BPRS Tension score (sum) ([2]; 12 mg n=4, Day 7, baseline 14): 6
BPRS Guilt Feelings percentage improvement ([2]; 12 mg n=4, Day 7, baseline 18): 72%
BPRS Guilt Feelings score (sum) ([2]; 12 mg n=4, Day 7, baseline 18): 5
BPRS Anxiety percentage improvement ([2]; 12 mg n=4, Day 7, baseline 25): 76%
BPRS Anxiety score (sum) ([2]; 12 mg n=4, Day 7, baseline 25): 6
BPRS Emotional Withdrawal percentage improvement ([2]; IDR n=8, 3 hours): 38%
BPRS Emotional Withdrawal score (sum) ([2]; IDR n=8, 3 hours): 8
BPRS Blunted Affect percentage improvement ([2]; IDR n=8, 3 hours, baseline 15): 27%
BPRS Blunted Affect score (sum) ([2]; IDR n=8, 3 hours, baseline 15): 11
BPRS Tension percentage improvement ([2]; IDR n=8, 3 hours, baseline 16): 31%
BPRS Tension score (sum) ([2]; IDR n=8, 3 hours, baseline 16): 11
BPRS Guilt Feelings percentage improvement ([2]; IDR n=8, 3 hours, baseline 34): 59%
BPRS Guilt Feelings score (sum) ([2]; IDR n=8, 3 hours, baseline 34): 14
BPRS Anxiety percentage improvement ([2]; IDR n=8, 3 hours, baseline 37): 49%
BPRS Anxiety score (sum) ([2]; IDR n=8, 3 hours, baseline 37): 19
BPRS Emotional Withdrawal score (sum) ([2]; IDR n=8, Day 1): 8
BPRS Blunted Affect score (sum) ([2]; IDR n=8, Day 1, baseline 15): 8
BPRS Tension percentage improvement ([2]; IDR n=8, Day 1, baseline 16): 31%
BPRS Tension score (sum) ([2]; IDR n=8, Day 1, baseline 16): 11
BPRS Guilt Feelings percentage improvement ([2]; IDR n=8, Day 1, baseline 34): 68%
BPRS Guilt Feelings score (sum) ([2]; IDR n=8, Day 1, baseline 34): 11
BPRS Anxiety percentage improvement ([2]; IDR n=8, Day 1, baseline 37): 57%
BPRS Anxiety score (sum) ([2]; IDR n=8, Day 1, baseline 37): 16
BPRS Emotional Withdrawal score (sum) ([2]; IDR n=8, Day 7): 8
BPRS Blunted Affect score (sum) ([2]; IDR n=8, Day 7, baseline 15): 8
BPRS Tension percentage improvement ([2]; IDR n=8, Day 7, baseline 16): 38%
BPRS Tension score (sum) ([2]; IDR n=8, Day 7, baseline 16): 10
BPRS Guilt Feelings percentage improvement ([2]; IDR n=8, Day 7, baseline 34): 71%
BPRS Guilt Feelings score (sum) ([2]; IDR n=8, Day 7, baseline 34): 10
BPRS Anxiety percentage improvement ([2]; IDR n=8, Day 7, baseline 37): 54%
BPRS Anxiety score (sum) ([2]; IDR n=8, Day 7, baseline 37): 17
